Reference: patent publication US20160346283A1, “Various Compounds as Autophagy Stimulants” (Velgene 3 Limited, priority 2013, published 2016)

Assays:
[1] = test system: GFP-RFP-LC3 HeLa cell line; assay: GFP-RFP-LC3 HeLa autophagy reporter cell assay (fluorescence microscopy); assay type: cell-based, human; conditions: for number of red foci (autolysosomes): 10.0 μM, 6 hours, compared to negative control (DMSO)
Protocol: The GFP-RFP-LC3 HeLa cell line (Settembre et al, Science, 2011) was cultured in DMEM (Dulbecco's Modified Eagle's Medium, Sigma, D7777) containing 4500 mg/l glucose, 10% heat inactivated FCS (Merck), 40 μg/ml gentamycin (Hungaropharma) and 600 μg/ml G418 (Sigma, G8168). Drug candidates […]-0696, […]-7132 and […]-1567 were obtained from the ENAMINE molecule bank. 3×10^4 cells were plated onto 13 mm diameter poly-D-lysine coated coverslips in 24-well plates (Greiner) with 24 hours before the treatment. […] As controls, 0.1 and 1% DMSO, 200 nM rapamycin (autophagy inductor) and 100 nM bafilomycin A1 (an autophagy inhibitor) were used. For fluorescence microscopy, cells were fixed in 4% paraformaldehyde (Taab) and mounted in mowiol 4.88 (Polysciences) supplemented with bis-benzimide (Sigma) for nuclei staining. 5 epifluorescent pictures were taken in each condition by a BX51 microscope (Olympus) fitted with a FluoViewII camera and the AnalysisPro software (Olympus), using a 60×/1.4 oil Plan objective and the appropriate filter sets (DAPI: BP330-385/DM400/BA420; GFP: BP460-500/DM505/BP510-560; RFP: BP480-550/DM570/BA590). […] RFP: red fluorescence protein-autolysosome (mature autophagic compartment) GFP: green fluorescence protein Atg8: Autophagy-related protein 8-the most frequently used marker for autophagy Yellow: RFP and GFP (merged)-autophagosome (the primary autophagic structure)

mice (pancreas, liver) = assay: Autophagic activity in mouse organs by electron microscopy; assay type: in vivo; conditions: 50 uMol intraperitoneal, 2.5 hours
Protocol: 50 uMol of effective molecules were dissolved in 10% DMSO and were administered intraperitoneously. After 2.5 hours the animals were sacrificed and their organs removed. The organs were transferred to tissue cultivating solution.
The organs were prepared for electronmicroscopic studies by standard preparation techniques. The ultrathin slices were prepared using Reichert-Jung Ultracut-E type ultramicrotome. The slides were investigated by JEM Jeol 1011 electron microscope.

[2] = test system: Drosophila melanogaster transgenic for an mCherry:Atg8 reporter (fat body); assay: mCherry:Atg8 reporter in fat body of Drosophila L3 larvae; assay type: in vivo; conditions: L3 larva, 1.0 uM, 2 hours
Protocol: Flies with the genotype of hsFlp:pAct<CD2<Gal4, UAS-nlsGFP, r4:mCherry:Atg8a were used. Microscopic images were taken from the fat body of wandering larvae at the L3 stage. Note that in well-fed larvae at the same stage, no autophagic activity is visible. 2 hours before the test, 90-94 hours larvae were transferred onto yeast suspension (0.5 g yeast extract 2.5 ml water, homogenization and boiling). […] Larvae were cultured in this medium for 2 hours. Preparation of fat bodies was performed in PBS solution. For covering, 8:2 ratio of glycerine:PBS was used (supplemented with 10 mM Hoechst solution).
Imaging was taken with a Zeiss AxioImager Z1 fluorescence microscope, supplemented with Apotome semiconfocal setup, 400× magnification, the same exposition time.
Examining T544-1567 (inhibitor), hsFlp; pAct<CD2<Gal4, UAS-nlsGFP, r4:mCherry:Atg8a flies were crossed with animals of yw; (EP)EDTP^EY22967 genotype (the autophagy antagonist EDTP/Jumpy is clonally overexpressed in fat body).
Cells with overactivated EDTP/Jumpy are in green due to the presence of the GFP transgene. Blue colour (DAP staining) indicates the nuclei (DNA). Red dots (mCherry:Atg8) indicate autophagy structures (autophagosomes+autolysosomes). […]

| Compound | accumulation of autophagosomes (yellow foci), fusion with lysosomes blocked ([1]; 100 nM bafilomycin A1, 6 hours) | number of red foci (autolysosomes) [1] | autophagy activity (autolysosome accumulation) ([1]; larger dose, 50 uM) | autophagic activity (autophagosomes and autolysosomes) in liver (mice (pancreas, liver)) | autophagic activity (autophagosomes and autolysosomes) in pancreas (mice (pancreas, liver)) | red dots (mCherry:Atg8 autophagy structures) in fat body [2] |
| --- | --- | --- | --- | --- | --- | --- |
| CO/C1=C\C(C)=C\[C@@H](C)[C@@H](O)[C@@H](C)C/C(C)=C/C=C/[C@H](OC)[C@@H]([C@@H](C)[C@@H](O)[C@H](C)[C@@]2(O)C[C@@H](O)[C@H](C)[C@@H](C(C)C)O2)OC1=O [Bafilomycin A1, reference compound] | yellow foci accumulate in large quantities | – | – | – | – | – |
| O=C1C([N-]S(=O)(=O)c2ccc([N+](=O)[O-])cc2)=C([n+]2c[nH]c3ccccc32)C(=O)c2ccccc21 [T0501-7132] | – | induces the accumulation the autolysosomes | markedly elevated activity | – | – | – |
| CC(Sc1nc2ccccc2c(=O)n1C1CCCC1)C(=O)N1CCc2ccccc21 (stereo not shown) [T558-0696] | – | increases the number of red foci (autolysosomes) | – | pronounced autophagic activity | pronounced autophagic activity | increased number of red dots |
